How the values were obtained:
Experiment in all cases: DSF thermal shift assay
Format in all cases: binding
Conditions in all cases: inhibitor 10 μM, protein 2 μM
BMP2K = target: T1, BMP2K (Homo sapiens, UniProt Q9NSY1)
T1 construct: purchased in-house DSF (thermal shift) panel per Fedorov et al
Protocol: (§1) Differences in the melting temperature (ΔTm) were measured as described by Fedorov et al.. Purified proteins were buffered in 25 mM HEPES (pH 7.5), 500 mM NaCl and were assayed in a 384-well plate with a final protein concentration of 2 μM in 10 μL assay volume. Inhibitors were added to a final concentration of 10 μM using an ECHO 550 acoustic dispenser (Labcyte, San José, CA, USA). As a fluorescence probe, SYPRO-Orange (Molecular Probes, Eugene, OR, USA) was added in a 1:5000 dilution. […] Data were analyzed through Boltzmann equation in the Protein Thermal Shift software (Applied Biosystems, Waltham, MA, USA). Samples were measured in technical duplicates.

BMPR2 = target: T2, BMPR2 (Homo sapiens, UniProt Q13873)
T2 construct: purchased in-house DSF (thermal shift) panel per Fedorov et al
Protocol: as §1

BRD4 = target: T3, BRD4 (Homo sapiens, UniProt O60885)
T3 construct: purchased in-house DSF (thermal shift) panel per Fedorov et al; IC50 follow-up at Reaction Biology Corp
Protocol: as §1

CAMK1D = target: T4, CAMK1D (Homo sapiens, UniProt Q8IU85)
T4 construct: purchased in-house DSF (thermal shift) panel per Fedorov et al; IC50 follow-up at Reaction Biology Corp
Protocol: as §1

CAMK1G = target: T5, CAMK1G (Homo sapiens, UniProt Q96NX5)
T5 construct: purchased in-house DSF (thermal shift) panel per Fedorov et al; IC50 follow-up at Reaction Biology Corp
T5 sequence (Q96NX5 whole entry): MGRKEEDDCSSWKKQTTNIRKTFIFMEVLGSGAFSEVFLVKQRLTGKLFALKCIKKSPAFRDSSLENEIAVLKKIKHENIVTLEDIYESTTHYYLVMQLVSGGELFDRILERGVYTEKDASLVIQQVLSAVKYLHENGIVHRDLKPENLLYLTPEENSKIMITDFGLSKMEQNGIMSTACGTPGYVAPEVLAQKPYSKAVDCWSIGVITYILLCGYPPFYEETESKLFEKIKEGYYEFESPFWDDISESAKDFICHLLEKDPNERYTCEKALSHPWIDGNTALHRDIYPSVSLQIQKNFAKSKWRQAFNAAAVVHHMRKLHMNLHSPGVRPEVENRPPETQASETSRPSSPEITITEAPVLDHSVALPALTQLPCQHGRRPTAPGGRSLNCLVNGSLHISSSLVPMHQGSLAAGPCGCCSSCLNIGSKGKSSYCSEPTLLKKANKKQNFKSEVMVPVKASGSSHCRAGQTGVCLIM
Protocol: as §1

CAMK2D = target: T6, CAMK2D (Homo sapiens, UniProt Q13557)
T6 construct: purchased in-house DSF (thermal shift) panel per Fedorov et al
Protocol: as §1

CASK = target: T7, CASK (Homo sapiens, UniProt O14936)
T7 construct: purchased in-house DSF (thermal shift) panel per Fedorov et al; IC50 follow-up at Reaction Biology Corp
T7 sequence (O14936 whole entry): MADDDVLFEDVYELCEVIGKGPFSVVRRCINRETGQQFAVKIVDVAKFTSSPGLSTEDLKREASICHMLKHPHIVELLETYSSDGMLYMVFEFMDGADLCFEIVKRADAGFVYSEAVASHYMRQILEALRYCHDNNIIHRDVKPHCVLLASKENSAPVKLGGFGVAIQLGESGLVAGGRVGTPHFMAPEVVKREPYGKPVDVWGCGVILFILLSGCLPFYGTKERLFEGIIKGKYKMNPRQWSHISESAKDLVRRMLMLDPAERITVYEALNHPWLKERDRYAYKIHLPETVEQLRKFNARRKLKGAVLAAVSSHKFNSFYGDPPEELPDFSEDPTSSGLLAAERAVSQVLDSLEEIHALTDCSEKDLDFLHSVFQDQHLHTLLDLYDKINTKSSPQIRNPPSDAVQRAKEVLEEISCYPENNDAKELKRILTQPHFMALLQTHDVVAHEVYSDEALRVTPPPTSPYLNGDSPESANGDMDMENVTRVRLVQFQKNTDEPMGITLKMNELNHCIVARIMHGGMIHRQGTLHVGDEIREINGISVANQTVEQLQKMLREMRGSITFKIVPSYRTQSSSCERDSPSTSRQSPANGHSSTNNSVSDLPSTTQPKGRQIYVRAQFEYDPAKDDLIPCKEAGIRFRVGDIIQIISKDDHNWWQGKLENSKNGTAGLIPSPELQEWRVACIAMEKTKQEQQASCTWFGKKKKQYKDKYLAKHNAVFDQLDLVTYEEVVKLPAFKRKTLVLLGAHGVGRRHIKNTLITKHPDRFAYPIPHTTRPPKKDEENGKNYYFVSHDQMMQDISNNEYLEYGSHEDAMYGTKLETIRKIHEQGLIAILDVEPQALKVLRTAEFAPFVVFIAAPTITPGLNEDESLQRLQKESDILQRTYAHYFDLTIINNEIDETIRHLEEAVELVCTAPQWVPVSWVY
Protocol: as §1

CDK2 = target: T8, CDK2 (Homo sapiens, UniProt P24941)
T8 construct: purchased in-house DSF (thermal shift) panel per Fedorov et al; IC50 follow-up at Reaction Biology Corp
Protocol: as §1

CDKL1 = target: T9, CDKL1 (Homo sapiens, UniProt Q00532)
T9 construct: purchased in-house DSF (thermal shift) panel per Fedorov et al; IC50 follow-up at Reaction Biology Corp
Protocol: as §1

CK2A1 = target: T10, CK2A1 (Homo sapiens, UniProt P68400)
T10 construct: purchased in-house DSF (thermal shift) panel per Fedorov et al
T10 sequence (P68400 whole entry): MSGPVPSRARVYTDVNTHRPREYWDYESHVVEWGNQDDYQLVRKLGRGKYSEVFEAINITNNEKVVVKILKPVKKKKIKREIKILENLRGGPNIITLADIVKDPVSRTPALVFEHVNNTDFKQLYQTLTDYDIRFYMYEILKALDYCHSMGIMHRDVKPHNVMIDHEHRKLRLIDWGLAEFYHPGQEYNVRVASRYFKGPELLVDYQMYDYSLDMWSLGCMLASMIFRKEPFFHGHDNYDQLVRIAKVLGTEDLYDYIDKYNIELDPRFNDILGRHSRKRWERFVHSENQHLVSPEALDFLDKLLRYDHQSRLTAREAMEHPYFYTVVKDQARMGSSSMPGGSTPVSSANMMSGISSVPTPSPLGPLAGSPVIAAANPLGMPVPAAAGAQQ
Protocol: as §1

CLK1 = target: T11, CLK1 (Homo sapiens, UniProt P49759)
T11 construct: purchased in-house DSF (thermal shift) panel per Fedorov et al; IC50 follow-up at Reaction Biology Corp
T11 sequence (P49759 whole entry): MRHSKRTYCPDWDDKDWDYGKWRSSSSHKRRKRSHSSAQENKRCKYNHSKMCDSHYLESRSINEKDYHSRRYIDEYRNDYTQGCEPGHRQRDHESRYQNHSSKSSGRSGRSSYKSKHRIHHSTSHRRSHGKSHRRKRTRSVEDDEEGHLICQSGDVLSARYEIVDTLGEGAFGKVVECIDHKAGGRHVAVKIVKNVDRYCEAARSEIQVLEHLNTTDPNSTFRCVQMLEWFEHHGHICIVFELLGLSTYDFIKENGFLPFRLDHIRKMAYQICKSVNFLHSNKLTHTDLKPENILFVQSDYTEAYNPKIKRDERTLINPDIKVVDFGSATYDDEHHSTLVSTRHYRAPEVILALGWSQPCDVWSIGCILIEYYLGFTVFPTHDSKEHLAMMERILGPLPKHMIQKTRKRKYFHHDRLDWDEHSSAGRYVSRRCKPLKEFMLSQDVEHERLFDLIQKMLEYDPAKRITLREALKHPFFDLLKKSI
Protocol: as §1

CLK3 = target: T12, CLK3 (Homo sapiens, UniProt P49761)
T12 construct: purchased in-house DSF (thermal shift) panel per Fedorov et al
Protocol: as §1

CSNK2A2 = target: T13, CSNK2A2 (Homo sapiens, UniProt P19784)
T13 construct: purchased in-house DSF (thermal shift) panel per Fedorov et al
T13 sequence (P19784 whole entry): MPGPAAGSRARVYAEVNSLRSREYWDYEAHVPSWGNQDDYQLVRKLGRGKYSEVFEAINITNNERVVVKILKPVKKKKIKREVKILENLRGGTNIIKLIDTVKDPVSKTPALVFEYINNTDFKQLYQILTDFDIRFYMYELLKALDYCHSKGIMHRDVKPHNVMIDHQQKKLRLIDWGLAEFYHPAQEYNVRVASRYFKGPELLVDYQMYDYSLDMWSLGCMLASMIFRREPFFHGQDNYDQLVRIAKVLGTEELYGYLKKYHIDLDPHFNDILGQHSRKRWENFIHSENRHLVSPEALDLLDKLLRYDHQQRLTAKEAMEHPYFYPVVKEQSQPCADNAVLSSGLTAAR
Protocol: as §1

DAPK3 = target: T14, DAPK3 (Homo sapiens, UniProt O43293)
T14 construct: purchased in-house DSF (thermal shift) panel per Fedorov et al
Protocol: as §1

DMPK1 = target: T15, DMPK1 (Homo sapiens, UniProt Q09013)
T15 construct: purchased in-house DSF (thermal shift) panel per Fedorov et al
Protocol: as §1

EPHA2 = target: T16, EPHA2 (Homo sapiens, UniProt P29317)
T16 construct: purchased in-house DSF (thermal shift) panel per Fedorov et al
Protocol: as §1

FGFR1 = target: T17, FGFR1 (Homo sapiens, UniProt P11362)
T17 construct: purchased in-house DSF (thermal shift) panel per Fedorov et al; IC50 follow-up at Reaction Biology Corp
Protocol: as §1

FGFR2 = target: T18, FGFR2 (Homo sapiens, UniProt P21802)
T18 construct: purchased in-house DSF (thermal shift) panel per Fedorov et al
Protocol: as §1

FGFR3 = target: T19, FGFR3 (Homo sapiens, UniProt P22607)
T19 construct: purchased in-house DSF (thermal shift) panel per Fedorov et al
Protocol: as §1

FLT1 = target: T20, FLT1 (Homo sapiens, UniProt P17948)
T20 construct: purchased in-house DSF (thermal shift) panel per Fedorov et al
Protocol: as §1

GAK = target: T21, GAK (Homo sapiens, UniProt O14976)
T21 construct: purchased in-house DSF (thermal shift) panel per Fedorov et al; IC50 follow-up at Reaction Biology Corp
Protocol: as §1

MAP2K1 = target: T22, MAP2K1 (Homo sapiens, UniProt Q02750)
T22 construct: purchased in-house DSF (thermal shift) panel per Fedorov et al
Protocol: as §1

MAP2K4 = target: T23, MAP2K4 (Homo sapiens, UniProt P45985)
T23 construct: purchased in-house DSF (thermal shift) panel per Fedorov et al
T23 sequence (P45985 whole entry): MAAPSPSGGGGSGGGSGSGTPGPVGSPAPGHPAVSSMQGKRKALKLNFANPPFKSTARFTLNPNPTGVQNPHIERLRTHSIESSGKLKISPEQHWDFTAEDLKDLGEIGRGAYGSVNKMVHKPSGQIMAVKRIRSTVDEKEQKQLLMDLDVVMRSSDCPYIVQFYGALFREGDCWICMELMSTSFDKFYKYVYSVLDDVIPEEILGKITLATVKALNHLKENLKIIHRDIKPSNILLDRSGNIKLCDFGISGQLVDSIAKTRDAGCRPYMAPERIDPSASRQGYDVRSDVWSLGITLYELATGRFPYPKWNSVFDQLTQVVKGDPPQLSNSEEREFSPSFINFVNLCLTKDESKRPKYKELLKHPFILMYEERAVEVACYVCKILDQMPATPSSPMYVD
Protocol: as §1

MAP2K6 = target: T24, MAP2K6 (Homo sapiens, UniProt P52564)
T24 construct: purchased in-house DSF (thermal shift) panel per Fedorov et al
T24 sequence (P52564 whole entry): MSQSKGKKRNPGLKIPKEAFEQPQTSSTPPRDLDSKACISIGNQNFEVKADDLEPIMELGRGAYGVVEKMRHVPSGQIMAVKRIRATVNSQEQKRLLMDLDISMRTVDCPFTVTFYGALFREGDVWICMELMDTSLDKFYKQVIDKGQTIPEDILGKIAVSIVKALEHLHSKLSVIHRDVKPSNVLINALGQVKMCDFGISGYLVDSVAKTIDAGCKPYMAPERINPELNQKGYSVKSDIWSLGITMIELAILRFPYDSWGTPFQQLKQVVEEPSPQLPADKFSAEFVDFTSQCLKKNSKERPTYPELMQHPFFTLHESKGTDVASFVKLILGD
Protocol: as §1

MAP3K5 = target: T25, MAP3K5 (Homo sapiens, UniProt Q99683)
T25 construct: purchased in-house DSF (thermal shift) panel per Fedorov et al
Protocol: as §1

MARK4 = target: T26, MARK4 (Homo sapiens, UniProt Q96L34)
T26 construct: purchased in-house DSF (thermal shift) panel per Fedorov et al; IC50 follow-up at Reaction Biology Corp
Protocol: as §1

MELK = target: T27, MELK (Homo sapiens, UniProt Q14680)
T27 construct: purchased in-house DSF (thermal shift) panel per Fedorov et al
T27 sequence (Q14680 whole entry): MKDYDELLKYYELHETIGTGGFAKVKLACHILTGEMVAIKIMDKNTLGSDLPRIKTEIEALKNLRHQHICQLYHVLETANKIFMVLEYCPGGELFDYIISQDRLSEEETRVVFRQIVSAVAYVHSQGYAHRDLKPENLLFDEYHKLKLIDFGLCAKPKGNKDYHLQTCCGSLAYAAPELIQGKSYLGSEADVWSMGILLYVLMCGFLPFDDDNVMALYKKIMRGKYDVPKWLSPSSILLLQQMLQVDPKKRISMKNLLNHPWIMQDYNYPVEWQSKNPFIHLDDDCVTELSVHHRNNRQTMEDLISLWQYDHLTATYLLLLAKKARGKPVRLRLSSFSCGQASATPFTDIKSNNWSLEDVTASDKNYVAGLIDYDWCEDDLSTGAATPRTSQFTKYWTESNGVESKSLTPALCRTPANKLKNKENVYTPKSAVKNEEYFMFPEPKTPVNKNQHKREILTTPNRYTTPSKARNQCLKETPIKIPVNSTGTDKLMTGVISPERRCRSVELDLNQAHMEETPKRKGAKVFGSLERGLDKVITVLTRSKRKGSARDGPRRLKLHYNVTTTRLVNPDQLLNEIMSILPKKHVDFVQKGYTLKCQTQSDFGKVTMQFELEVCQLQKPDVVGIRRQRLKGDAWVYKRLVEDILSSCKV
Protocol: as §1

MST3 = target: T28, MST3 (Homo sapiens, UniProt Q9Y6E0)
T28 construct: purchased in-house DSF (thermal shift) panel per Fedorov et al
T28 sequence (Q9Y6E0 whole entry): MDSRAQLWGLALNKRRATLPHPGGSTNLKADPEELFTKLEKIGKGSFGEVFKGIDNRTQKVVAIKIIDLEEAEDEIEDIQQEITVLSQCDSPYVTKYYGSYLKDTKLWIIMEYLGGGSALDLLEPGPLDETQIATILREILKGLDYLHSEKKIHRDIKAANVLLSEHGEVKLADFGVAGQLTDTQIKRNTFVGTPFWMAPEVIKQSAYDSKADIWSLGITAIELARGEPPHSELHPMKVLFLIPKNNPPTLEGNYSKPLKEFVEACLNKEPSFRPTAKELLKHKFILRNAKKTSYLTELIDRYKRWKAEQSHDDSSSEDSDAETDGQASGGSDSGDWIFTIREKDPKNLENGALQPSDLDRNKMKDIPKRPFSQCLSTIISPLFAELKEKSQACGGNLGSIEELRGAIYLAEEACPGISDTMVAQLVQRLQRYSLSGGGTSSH
Protocol: as §1

MST4 = target: T29, MST4 (Homo sapiens, UniProt Q9P289)
T29 construct: purchased in-house DSF (thermal shift) panel per Fedorov et al
Protocol: as §1

PDK4 = target: T30, PDK4 (Homo sapiens, UniProt Q16654)
T30 construct: purchased in-house DSF (thermal shift) panel per Fedorov et al; IC50 follow-up at Reaction Biology Corp
Protocol: as §1

PIM1 = target: T31, PIM1 (Homo sapiens, UniProt P11309)
T31 construct: purchased in-house DSF (thermal shift) panel per Fedorov et al
Protocol: as §1

PIM3 = target: T32, PIM3 (Homo sapiens, UniProt Q86V86)
T32 construct: purchased in-house DSF (thermal shift) panel per Fedorov et al; IC50 follow-up at Reaction Biology Corp
Protocol: as §1

PKMYT1 = target: T33, PKMYT1 (Homo sapiens, UniProt Q99640)
T33 construct: purchased in-house DSF (thermal shift) panel per Fedorov et al; IC50 follow-up at Reaction Biology Corp
Protocol: as §1

RIOK1 = target: T34, RIOK1 (Homo sapiens, UniProt Q9BRS2)
T34 construct: purchased in-house DSF (thermal shift) panel per Fedorov et al; IC50 follow-up at Reaction Biology Corp
Protocol: as §1

RIOK2 = target: T35, RIOK2 (Homo sapiens, UniProt Q9BVS4)
T35 construct: purchased in-house DSF (thermal shift) panel per Fedorov et al; IC50 follow-up at Reaction Biology Corp
Protocol: as §1

RPS6KA1 = target: T36, RPS6KA1 (Homo sapiens, UniProt Q15418)
T36 construct: purchased in-house DSF (thermal shift) panel per Fedorov et al
Protocol: as §1

RPS6KA6 = target: T37, RPS6KA6 (Homo sapiens, UniProt Q9UK32)
T37 construct: purchased in-house DSF (thermal shift) panel per Fedorov et al
Protocol: as §1

STK17B = target: T38, STK17B (Homo sapiens, UniProt O94768)
T38 construct: purchased in-house DSF (thermal shift) panel per Fedorov et al; IC50 follow-up at Reaction Biology Corp
Protocol: as §1

STK6 = target: T39, STK6 (Homo sapiens, UniProt O14965)
T39 construct: purchased in-house DSF (thermal shift) panel per Fedorov et al; IC50 follow-up at Reaction Biology Corp
T39 sequence (O14965 whole entry): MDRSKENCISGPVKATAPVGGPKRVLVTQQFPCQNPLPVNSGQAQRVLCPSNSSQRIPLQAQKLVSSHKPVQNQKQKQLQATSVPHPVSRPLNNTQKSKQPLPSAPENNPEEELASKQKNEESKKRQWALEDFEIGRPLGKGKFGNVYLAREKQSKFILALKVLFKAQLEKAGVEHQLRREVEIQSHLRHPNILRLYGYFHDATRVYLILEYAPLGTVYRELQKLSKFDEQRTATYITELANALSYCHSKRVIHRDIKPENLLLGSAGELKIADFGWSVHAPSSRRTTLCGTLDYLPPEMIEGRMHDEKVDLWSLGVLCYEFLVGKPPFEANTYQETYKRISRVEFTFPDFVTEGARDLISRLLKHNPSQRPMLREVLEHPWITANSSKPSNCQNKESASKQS
Protocol: as §1

ULK3 = target: T40, ULK3 (Homo sapiens, UniProt Q6PHR2)
T40 construct: purchased in-house DSF (thermal shift) panel per Fedorov et al
Protocol: as §1

ΔTm at 10 µM (BMP2K): 0 °C | ΔTm at 10 µM (BMPR2): -0.4 °C | ΔTm at 10 µM (BRD4): -1 °C | ΔTm at 10 µM (CAMK1D): 1.1 °C | ΔTm at 10 µM (CAMK1G): -0.6 °C | ΔTm at 10 µM (CAMK2D): -0.1 °C | ΔTm at 10 µM (CASK): -0.9 °C | ΔTm at 10 µM (CDK2): -0.2 °C | ΔTm at 10 µM (CDKL1): -0.4 °C | ΔTm at 10 µM (CK2A1): 0.1 °C | ΔTm at 10 µM (CLK1): 0.3 °C | ΔTm at 10 µM (CLK3): 0.1 °C | ΔTm at 10 µM (CSNK2A2): 0.4 °C | ΔTm at 10 µM (DAPK3): 0.9 °C | ΔTm at 10 µM (DMPK1): 0.2 °C | ΔTm at 10 µM (EPHA2): 0.3 °C | ΔTm at 10 µM (FGFR1): 0.4 °C | ΔTm at 10 µM (FGFR2): 0.3 °C | ΔTm at 10 µM (FGFR3): 0.1 °C | ΔTm at 10 µM (FLT1): 0.1 °C | ΔTm at 10 µM (GAK): -0.6 °C | ΔTm at 10 µM (MAP2K1): -0.3 °C | ΔTm (MAP2K4): > 2 °C | ΔTm at 10 µM (MAP2K4): 3 °C | ΔTm at 10 µM (MAP2K6): 0.5 °C | ΔTm at 10 µM (MAP3K5): 0.2 °C | ΔTm at 10 µM (MARK4): 0.1 °C | ΔTm at 10 µM (MELK): 0.4 °C | ΔTm at 10 µM (MST3): -0.3 °C | ΔTm at 10 µM (MST4): -1.1 °C | ΔTm at 10 µM (PDK4): -0.1 °C | ΔTm at 10 µM (PIM1): -0.6 °C | ΔTm at 10 µM (PIM3): -0.6 °C | ΔTm at 10 µM (PKMYT1): -1 °C | ΔTm at 10 µM (RIOK1): 0.2 °C | ΔTm at 10 µM (RIOK2): -0.8 °C | ΔTm at 10 µM (RPS6KA1): 0.3 °C | ΔTm at 10 µM (RPS6KA6): 0.6 °C | ΔTm at 10 µM (STK17B): -0.8 °C | ΔTm at 10 µM (STK6): 0.2 °C | ΔTm at 10 µM (ULK3): 0.4 °C
SMILES: CCc1cnc(Nc2nc(Cl)ccc2[N+](=O)[O-])nc1N1CCN(Cc2nc3cc(C(F)(F)F)ccc3[nH]2)CC1 [Compound 2]
